The values below come from patent publication US10758534B2 (Vertex Pharmaceuticals Incorporated, priority 2014, dated 2020).

SMILES strings stand for the structures.

This experiment has as its target T1, F508del (Homo sapiens, UniProt P13569, DEL508-508).
T1 construct: expressed in transfected cells
The experiment is described as follows: Protocol 1: membrane potential optical assay (FLIPR III, voltage sensing dye), identification of potentiator compounds. The experiment is classed as cell-based. The conditions noted are these: Table 3, compounds of Table 1. The method, boiled down: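 Mouse NIH 3T3 fibroblasts stably expressing F508del, temperature-corrected at 27 °C for 24 h, pretreated with compound, then loaded with voltage-sensing redistribution dye. Forskolin was added in a single step with a chloride gradient (chloride-free gluconate bath; Bath Solution #1 HEPES pH 7.4). Membrane-potential fluorescence read on FLIPR III.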

T1 sequence (P13569 with tags, fused parts or gaps DEL508-508): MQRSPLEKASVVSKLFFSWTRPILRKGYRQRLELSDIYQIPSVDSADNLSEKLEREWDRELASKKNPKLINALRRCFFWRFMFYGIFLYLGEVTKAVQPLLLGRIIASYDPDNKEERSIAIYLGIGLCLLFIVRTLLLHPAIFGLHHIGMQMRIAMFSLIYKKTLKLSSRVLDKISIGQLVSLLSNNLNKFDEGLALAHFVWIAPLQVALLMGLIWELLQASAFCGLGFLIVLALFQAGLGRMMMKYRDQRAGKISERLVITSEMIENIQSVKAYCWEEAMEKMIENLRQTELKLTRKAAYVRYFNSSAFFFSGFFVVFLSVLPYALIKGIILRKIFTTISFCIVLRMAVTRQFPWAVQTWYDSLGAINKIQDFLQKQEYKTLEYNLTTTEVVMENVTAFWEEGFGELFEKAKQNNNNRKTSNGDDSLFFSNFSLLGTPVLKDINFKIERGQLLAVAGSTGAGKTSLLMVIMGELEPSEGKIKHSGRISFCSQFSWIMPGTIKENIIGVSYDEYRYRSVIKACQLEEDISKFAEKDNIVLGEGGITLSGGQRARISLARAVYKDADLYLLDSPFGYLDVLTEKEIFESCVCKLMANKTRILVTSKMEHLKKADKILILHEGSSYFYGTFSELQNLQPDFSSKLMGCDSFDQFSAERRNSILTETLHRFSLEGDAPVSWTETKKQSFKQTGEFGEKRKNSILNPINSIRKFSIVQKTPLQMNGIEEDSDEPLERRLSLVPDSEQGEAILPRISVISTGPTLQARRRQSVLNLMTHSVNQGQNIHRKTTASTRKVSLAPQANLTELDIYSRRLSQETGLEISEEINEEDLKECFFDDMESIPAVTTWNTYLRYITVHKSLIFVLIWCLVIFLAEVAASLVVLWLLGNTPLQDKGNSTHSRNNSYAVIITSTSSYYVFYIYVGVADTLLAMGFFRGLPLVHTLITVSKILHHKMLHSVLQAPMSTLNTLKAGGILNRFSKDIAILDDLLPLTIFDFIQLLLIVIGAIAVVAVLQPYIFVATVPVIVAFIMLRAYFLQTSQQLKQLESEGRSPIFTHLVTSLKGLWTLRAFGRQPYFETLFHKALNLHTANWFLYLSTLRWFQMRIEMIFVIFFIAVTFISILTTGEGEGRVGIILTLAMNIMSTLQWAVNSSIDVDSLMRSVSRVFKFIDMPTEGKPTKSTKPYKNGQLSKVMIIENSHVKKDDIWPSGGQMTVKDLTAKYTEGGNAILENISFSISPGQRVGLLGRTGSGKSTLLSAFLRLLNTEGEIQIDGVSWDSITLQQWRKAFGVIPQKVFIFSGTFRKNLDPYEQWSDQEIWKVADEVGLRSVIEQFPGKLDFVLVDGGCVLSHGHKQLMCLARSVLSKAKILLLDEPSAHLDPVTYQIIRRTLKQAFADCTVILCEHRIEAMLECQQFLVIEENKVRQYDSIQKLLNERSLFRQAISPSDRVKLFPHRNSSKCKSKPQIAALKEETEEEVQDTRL

In the case of `CC(C)COc1cc(F)cc(-c2ccc(C(=O)NS(=O)(=O)c3cccc(N)n3)c(OC3CC(F)(F)C3)n2)c1` [Compound 1458], the EC30 entry is “+++ (“+++” means <3 uM)”. Consider `CNC1CCN(S(=O)(=O)NC(=O)c2ccc(-c3cc(F)cc(OCC(C)C)c3)nc2N2CC(C)CC2(C)C)C1` (stereo not shown) [Compound 1554, 6-(3-fluoro-5-isobutoxy-phenyl)-N—[3-(methylamino)pyrrolidin-1-yl]sulfonyl-2-(2,2,4-trimethylpyrrolidin-1-yl)pyridine-3-carboxamide], for which the EC30 result is on record as “+++ (“+++” means <3 uM)”. With `COc1cccc2c1C(C)(C(=O)NS(=O)(=O)c1cccc(N)n1)N(Cc1c(C)cc(C)cc1C)C2` (stereo not shown) [Compound 1075, N-[(6-amino-2-pyridyl)sulfonyl]-7-methoxy-1-methyl-2-[(2,4,6-trimethylphenyl)methyl]isoindoline-1-carboxamide] the entry was “+++ (“+++” means <3 uM)”; with `CC(=O)N(C)C1CCN(S(=O)(=O)NC(=O)c2ccc(-c3cc(F)cc(OCC(C)C)c3)nc2N2CC(C)CC2(C)C)C1` (stereo not shown) [Compound 1533, N—[3-[acetyl(methyl)amino]pyrrolidin-1-yl]sulfonyl-6-(3-fluoro-5-isobutoxy-phenyl)-2-(2,2,4-trimethylpyrrolidin-1-yl)pyridine-3-carboxamide], “+++ (“+++” means <3 uM)”. With `CC1CCN(c2nc3c(cc2C(=O)NS(=O)(=O)c2ccn[nH]2)CCCC3(C)C)CC1` [Compound 800, 8,8-dimethyl-2-(4-methyl-1-piperidyl)-N-(1H-pyrazol-5-ylsulfonyl)-6,7-dihydro-5H-quinoline-3-carboxamide] the entry was “++ (“++” means between 3 uM and 10 uM)”; with `COc1ccc(-c2ccc(C(=O)NS(=O)(=O)c3cccnc3N)c(N3C[C@@H](C)CC3(C)C)n2)cc1C` [Compound 1747, N-[(2-amino-3-pyridyl)sulfonyl]-6-(4-methoxy-3-methyl-phenyl)-2-[(4S)-2,2,4-trimethylpyrrolidin-1-yl]pyridine-3-carboxamide], “+++ (“+++” means <3 uM)”. With `COc1ccc(OC)c(-c2ccc(C(=O)NS(=O)(=O)c3ccc[nH]c3=O)c(Oc3c(C)cc(C)cc3C)n2)c1` [Compound 888, 6-(2,5-dimethoxyphenyl)-N-[(2-oxo-1H-pyridin-3-yl)sulfonyl]-2-(2,4,6-trimethylphenoxy)pyridine-3-carboxamide], the EC30 entry was “++ (“++” means between 3 uM and 10 uM)”. The entry for `CC(C)COc1cc(F)cc(-c2ccc(C(=O)NS(=O)(=O)c3ccn[nH]3)c(N3CCCC3C)n2)c1` (stereo not shown) [Compound 1142, 6-(3-fluoro-5-isobutoxy-phenyl)-2-(2-methylpyrrolidin-1-yl)-N-(1H-pyrazol-5-ylsulfonyl)pyridine-3-carboxamide] is “++ (“++” means between 3 uM and 10 uM)”; for `CC(C)c1ccc(C(=O)NS(=O)(=O)c2cccc(N)n2)c(N2C[C@@H](C)CC2(C)C)n1` [Compound 1505, N-[(6-amino-2-pyridyl)sulfonyl]-6-isopropyl-2-[(4S)-2,2,4-trimethylpyrrolidin-1-yl]pyridine-3-carboxamide] it is “+++ (“+++” means <3 uM)”. Consider `COc1cc(-c2ccc(C(=O)NS(=O)(=O)c3ccc[nH]c3=O)c(N3C[C@@H](C)CC3(C)C)n2)ccc1F` [Compound 1780, 6-(4-fluoro-3-methoxy-phenyl)-N-[(2-oxo-1H-pyridin-3-yl)sulfonyl]-2-[(4S)-2,2,4-trimethylpyrrolidin-1-yl]pyridine-3-carboxamide], for which the EC30 result was “++ (“++” means between 3 uM and 10 uM)”. Take `Cc1cc(C)c(Oc2nc(-c3cnn(CCC(C)C)c3)ccc2C(=O)NS(=O)(=O)c2cccc(N)n2)c(C)c1` [Compound 1336, N-[(6-amino-2-pyridyl)sulfonyl]-6-(1-isopentylpyrazol-4-yl)-2-(2,4,6-trimethylphenoxy)pyridine-3-carboxamide]: the EC30 entry is recorded as “+++ (“+++” means <3 uM)”. For `CCN(CC)c1nc(-c2ccc(C(=O)NS(=O)(=O)c3cccc(N)n3)c(N3CC(C)CC3(C)C)n2)ccc1C` (stereo not shown) [Compound 1907, N-[(6-amino-2-pyridyl)sulfonyl]-6-[6-(diethylamino)-5-methyl-2-pyridyl]-2-(2,2,4-trimethylpyrrolidin-1-yl)pyridine-3-carboxamide], the EC30 entry was “+++ (“+++” means <3 uM)”.

`CCOc1ccc(F)c(-c2ccc(C(=O)NS(=O)(=O)c3ccc[nH]c3=O)c(Oc3c(C)cc(C)cc3C)n2)c1` [Compound 1301, 6-(5-ethoxy-2-fluoro-phenyl)-N-[(2-oxo-1H-pyridin-3-yl)sulfonyl]-2-(2,4,6-trimethylphenoxy)pyridine-3-carboxamide]: the EC30 entry was “++ (“++” means between 3 uM and 10 uM)”. For the compound `Cc1cc(C)c(Oc2nc(-c3cc(F)cc(F)c3)ccc2C(=O)NS(=O)(=O)c2cccc(N)n2)c(C)c1` [Compound 1325, N-[(6-amino-2-pyridyl)sulfonyl]-6-(3,5-difluorophenyl)-2-(2,4,6-trimethylphenoxy)pyridine-3-carboxamide], the EC30 entry was “+++ (“+++” means <3 uM)”.

On to `Cc1cc(C)c(CN2Cc3c(O)cccc3C2(C)C(=O)NS(=O)(=O)c2cccc(N)n2)c(C)c1` (stereo not shown) [Compound 1338, N-[(6-amino-2-pyridyl)sulfonyl]-4-hydroxy-1-methyl-2-[(2,4,6-trimethylphenyl)methyl]isoindoline-1-carboxamide], for which the EC30 result was “++ (“++” means between 3 uM and 10 uM)”. Regarding `CC1CN(c2ncccc2C(=O)NS(=O)(=O)c2cccc(OCc3cc(-c4ccccc4)on3)n2)C(C)(C)C1` (stereo not shown) [Compound 1777, N—[[6-[(5-phenylisoxazol-3-yl)methoxy]-2-pyridyl]sulfonyl]-2-(2,2,4-trimethylpyrrolidin-1-yl)pyridine-3-carboxamide], the EC30 result is reported as “+++ (“+++” means <3 uM)”. With `C[C@@H]1CN(c2nc(C(C)(C)C)ccc2C(=O)NS(=O)(=O)c2ccc[nH]c2=O)C(C)(C)C1` [Compound 1765, 6-tert-butyl-N-[(2-oxo-1H-pyridin-3-yl)sulfonyl]-2-[(4S)-2,2,4-trimethylpyrrolidin-1-yl]pyridine-3-carboxamide] the entry was “+++ (“+++” means <3 uM)”; with `CC(C)COc1cc(F)cc(-c2ccc(C(=O)NS(=O)(=O)c3cccc(N)n3)c(OC3CCC(F)(F)CC3)n2)c1` [Compound 961, N-[(6-amino-2-pyridyl)sulfonyl]-2-(4,4-difluorocyclohexoxy)-6-(3-fluoro-5-isobutoxy-phenyl)pyridine-3-carboxamide], “+++ (“+++” means <3 uM)”. For `Cc1cc(C)c(Oc2nc(C)c(C)cc2C(=O)NS(=O)(=O)c2cccc(N)n2)c(C)c1` [Compound 841, N-[(6-amino-2-pyridyl)sulfonyl]-5,6-dimethyl-2-(2,4,6-trimethylphenoxy)pyridine-3-carboxamide], the EC30 entry is reported as “+++ (“+++” means <3 uM)”. Take `Cc1cc(C)c(Oc2nc(C3CCC(F)(F)CC3)ccc2C(=O)NS(=O)(=O)c2ccc[nH]c2=O)c(C)c1` [Compound 1329, 6-(4,4-difluorocyclohexyl)-N-[(2-oxo-1H-pyridin-3-yl)sulfonyl]-2-(2,4,6-trimethylphenoxy)pyridine-3-carboxamide]: the EC30 entry is “++ (“++” means between 3 uM and 10 uM)”. `CCOCCOc1cc(C)cc(-c2ccc(C(=O)NS(=O)(=O)c3cccc(N)n3)c(N3C[C@@H](C)CC3(C)C)n2)n1` [Compound 1700, N-[(6-amino-2-pyridyl)sulfonyl]-6-[6-(2-ethoxyethoxy)-4-methyl-2-pyridyl]-2-[(4S)-2,2,4-trimethylpyrrolidin-1-yl]pyridine-3-carboxamide]: the EC30 entry is “+++ (“+++” means <3 uM)”. As for `CC(C)c1ccccc1Oc1nc(C(C)(C)C)ccc1C(=O)NS(=O)(=O)c1cccc(N)n1` [Compound 1031, N-[(6-amino-2-pyridyl)sulfonyl]-6-tert-butyl-2-(2-isopropylphenoxy)pyridine-3-carboxamide], the EC30 entry is given as “+++ (“+++” means <3 uM)”.

For `COc1ccc(C)c(-c2nc(N3CC(C)CC3(C)C)c(C(=O)NS(=O)(=O)c3cccc(N)n3)cc2C)c1` (stereo not shown) [Compound 1287, N-[(6-amino-2-pyridyl)sulfonyl]-6-(5-methoxy-2-methyl-phenyl)-5-methyl-2-(2,2,4-trimethylpyrrolidin-1-yl)pyridine-3-carboxamide], the EC30 result is reported as “+++ (“+++” means <3 uM)”. With `CC(C)COc1cc(F)cc(-c2ccc(C(=O)NS(=O)(=O)c3cccc(O)c3)c(N3CCC(C)(C)CC3)n2)c1` [Compound 1309, 2-(4,4-dimethyl-1-piperidyl)-6-(3-fluoro-5-isobutoxy-phenyl)-N-(3-hydroxyphenyl)sulfonyl-pyridine-3-carboxamide] the entry was “+++ (“+++” means <3 uM)”. As for `CC(Oc1nc(N2C[C@@H](C)CC2(C)C)c(C(=O)NS(=O)(=O)c2cccc(N)n2)cc1F)C1CCCCC1` (stereo partly drawn) [Compound 1730, N-[(6-amino-2-pyridyl)sulfonyl]-6-(1-cyclohexylethoxy)-5-fluoro-2-[(4S)-2,2,4-trimethylpyrrolidin-1-yl]pyridine-3-carboxamide], the EC30 result is reported as “+++ (“+++” means <3 uM)”. The entry for `Cc1cc(C)c(Oc2nc(-c3cccc(OC(C)C)c3)ccc2C(=O)NS(=O)(=O)c2ccc[nH]c2=O)c(C)c1` [Compound 1188, 6-(3-isopropoxyphenyl)-N-[(2-oxo-1H-pyridin-3-yl)sulfonyl]-2-(2,4,6-trimethylphenoxy)pyridine-3-carboxamide] is “+++ (“+++” means <3 uM)”; for `CC(C)COc1cc(F)cc(-c2ccc(C(=O)NS(=O)(=O)c3cccc(=O)[nH]3)c(N3CC(C)CC3(C)C)n2)c1` (stereo not shown) [Compound 1308, 6-(3-fluoro-5-isobutoxy-phenyl)-N-[(6-oxo-1H-pyridin-2-yl)sulfonyl]-2-(2,2,4-trimethylpyrrolidin-1-yl)pyridine-3-carboxamide] it is “+++ (“+++” means <3 uM)”. Regarding `CC(C)COc1cc(F)cc(-c2ccc(C(=O)NS(=O)(=O)c3ccn[nH]3)c(N3Cc4ccccc4C3)n2)c1` [Compound 981, 6-(3-fluoro-5-isobutoxy-phenyl)-2-isoindolin-2-yl-N-(1H-pyrazol-5-ylsulfonyl)pyridine-3-carboxamide], the EC30 result is “++ (“++” means between 3 uM and 10 uM)”.
